Tests used:
[1] = system: membrane surface Na^+–Ca^2+ exchange; design: method as in doi:10.13005/bpj/1892; conditions: decreases sarcoplasmic reticulum Ca2+ release; cited from earlier work
[2] = Metabolite identification of DH in rat plasma, urine, feces and rat liver microsomes by UHPLC-Q-Orbitrap MS/MS; format: in vivo; conditions: rat plasma
Description: For the analysis of DH metabolites, the same UHPLC-MS/MS system was used for the plasma analysis, and the ACQUIT UHPLC BEH C18 column was also utilized. Mobile phase A consisted of 0.1% formic acid in water (v/v), while mobile phase B comprised acetonitrile. The flow rate was maintained at 0.2 mL/min, with a 10 µL injection volume. The column temperature was kept constant at 35 °C, and the RS autosampler temperature was maintained at 10 °C. The gradient elution was as follows: 0–3 min(5%B), 3–11 min (7%B), 11–18 min (7%B), and 18–45 min (30%B). A full MS/dd MS^2 mode in positive heated electrospray ionization (HESI) with 140,000 (for MS) and 17,500 (for MS/MS) resolutions was used for the Q–Exactive Plus Orbitrap MS. The compounds identified in full MS/dd MS^2 mode will be scanned using PRM scanning. The following MS parameters were employed: AGC target, 1 × 10^6; Maximum IT, 100 ms; Spray voltage, 3.2 kV; Capillary temp, 320 °C; S-lens RF level, 55; HCD Energy 20, 40, and 60.
Rat liver microsomes were used for in vitro experiments to study DH metabolism in rats more quickly and easily. After that, the cofactors of phases I and II were added to create the phase I and phase II metabolic systems. The composition of the reagent kit and the procedure can be found in our previous work.
For the plasma study, 100 µL of plasma was obtained from rats at 0.5, 1, 2, and 4 h after medicine administration. Then, 300 µL of acetonitrile was added to the above plasma, vortexed for 1 min, and centrifuged for 7 min. The supernatant was collected, and the remaining liquid was dried using nitrogen gas at 40 °C. The blow-dried samples were re-dissolved in 100 µL methanol, sonicated for 1 min, and centrifuged for 7 min.
Urine was collected during the period spanning from 0 to 48 h following administration, with each period’s combined urine comprising 10 mL and 30 mL of acetonitrile added thereto. After a 10 min interval of sonication, the urine samples were transferred into 1.5 mL centrifuge tubes, vortexed for 1 min, and then centrifuged at a speed of 14,000 rpm for 10 min. Successively, the supernatant was merged and subjected to drying by nitrogen gas at 40 °C. The blow-dried samples were re-dissolved in 100 µL of methanol, sonicated for 1 min, and centrifuged for 7 min.
For the fecal study, feces were collected within 0–48 h following administration, dried to powder at room temperature in a shaded area, and combined to yield 8 mL per period, to which 40 mL of acetonitrile was added. Following 30 min of sonication, the samples were transferred to 1.5 mL centrifuge tubes and centrifuged at 14,000 rpm for 10 min. The supernatant was collected and dried with nitrogen at 40 °C before analysis via UHPLC-MS/MS. Before analysis, the blow-dried samples were re-dissolved in 100 µL of methanol, sonicated for 1 min, and centrifuged for 7 min.
Compound Discovery 3.3 was used for data processing. The MS spectrometric features mainly include retention time, exact mass, peak intensity, and fragment ions. The data processing mainly included selecting spectra, aligning retention times, creating pattern traces, creating fish traces, generating expected compounds, finding expected compounds, grouping expected compounds, fish scoring, and marking background compounds. The mass tolerance is less than 5 ppm.

[3] = Stability of DH in rat plasma samples (autosampler, −80 °C storage, room temperature, freeze–thaw); format: in vitro ADME; conditions: for Accuracy, 4 h / Accuracy, 8 h / Accuracy, 12 h: autosampler; for Accuracy, Room temper: room temperature; for Accuracy, 1 day / Accuracy, 7 days / Accuracy, 15 days: stored at −80 °C; for Accuracy, Thaw: three freeze–thaw cycles
Description: Three concentrations were used to test the stability of plasma samples in a variety of circumstances. […] Its accuracy range was 97.46–109.44%. When samples were stored at −80 °C, the accuracy of the samples ranged from 99.44% to 109.22% at three concentrations on days 1, 7, and 15. The prepared QC samples were placed in the autosampler and injected at 4, 8, and 12 h. The accuracy was calculated to be in the range of 103.34–110.57%. The prepared stability samples were stored at −80 °C and the accuracy range was measured from 97.37% to 104.56% after three sequential freeze–thaw cycles.
DH was added to the blank plasma to produce concentrations of 1, 10, 100, and 500 ng/mL QC samples. Then, 10 µL DH was added to blank plasma and vortexed for 3 s. Next, 10 µL IS was added to the plasma and vortexed for 3 s, while 300 µL of acetonitrile was added to the above plasma, vortexed for 1 min, and centrifuged for 7 min. The mixture supernatant was collected and blown dry at 40 °C under nitrogen. Blow-dried samples were re-dissolved in 100 μL of 30% acetonitrile in water and centrifuged for 7 min.
Although acetonitrile precipitates most of the protein, plasma samples contain phospholipids, metabolites, etc., that interfere with the detection of DH and IS. Specificity was mainly examined at DH and IS retention times without interference peaks in blank plasma. In addition, samples tested after administration should not show interfering peaks at the DH and IS peak times. The standard curves were made up of 8 nonzero analyte points, and the linearity was tested. The correlation of peak area (analyte/IS) with the labeled plasma concentration was plotted for regression analysis. This analyte was predicted to have a correlation coefficient (r^2) of more than 0.99 with the corresponding standard curve. The relative standard deviation (RSD) and relative error (RE) values were calculated by measuring six repeated QC samples on the same day to evaluate the intra-day precision and accuracy. Inter-day precision and accuracy were characterized by RSD and RE, respectively. The recoveries were determined by examining the ratio of the peak areas of DH before and after extraction. The matrix effect is the ratio of the peak area of DH added to plasma and DH dissolved in the solvent. The stability evaluation should guarantee that the concentration of the analyte remains unchanged throughout the sample preparation and analysis process, as well as during storage. Stability studies include long-term storage stability at −80 °C (1, 7 and 15 days); repeated freeze–thaw stability; autosampler stability; room temperature stability; and long-term storage stability of stock solutions.

[4] = design: method as in doi:10.37547/TAJMSPR/Volume02Issue07-17; conditions: cited from earlier work
[5] = nominal concentration 100 ng/mL
[6] = nominal concentration 500 ng/mL

COc1cc2c(cc1OC)C(c1ccc(N(C)C)cc1)NCC2 (stereo not shown) [DH, N, N-dimethylaniline-heliamine]
membrane surface Na+–Ca2+ exchange inhibition [1]: inhibitor | Rat and LM* (matrices in which DH or the metabolite was detected) [2]: P*, U*, F*, LM* | Accuracy, 4 h ([3]; nominal concentration 10 ng/mL): 110.30% | Accuracy, 8 h ([3]; nominal concentration 10 ng/mL): 108.80% | Accuracy, 12 h ([3]; nominal concentration 10 ng/mL): 110.57% | Accuracy, 4 h [3, 5]: 106.65% | Accuracy, 8 h [3, 5]: 106.69% | Accuracy, 12 h [3, 5]: 103.81% | Accuracy, 4 h [3, 6]: 105.03% | Accuracy, 8 h [3, 6]: 103.54% | Accuracy, 12 h [3, 6]: 103.34% | time stable in rat plasma samples ([3]; kept at room temperature): at least 12 h | Accuracy, Room temper ([3]; nominal concentration 10 ng/mL): 109.44% | Accuracy, Room temper [3, 5]: 101.36% | Accuracy, Room temper [3, 6]: 97.46% | Accuracy, 1 day ([3]; nominal concentration 10 ng/mL): 109.12% | Accuracy, 7 days ([3]; nominal concentration 10 ng/mL): 108.43% | Accuracy, 15 days ([3]; nominal concentration 10 ng/mL): 106.68% | Accuracy, 1 day [3, 5]: 103.58% | Accuracy, 7 days [3, 5]: 106.23% | Accuracy, 15 days [3, 5]: 101.13% | Accuracy, 1 day [3, 6]: 99.17% | Accuracy, 7 days [3, 6]: 105.59% | Accuracy, 15 days [3, 6]: 94.99% | Accuracy, Thaw ([3]; nominal concentration 10 ng/mL): 100.00% | Accuracy, Thaw [3, 5]: 104.56% | Accuracy, Thaw [3, 6]: 97.37% | antiarrhythmic activity [4]: promising antiarrhythmic activity

— article PMC11434354, “Metabolic and Pharmacokinetic Profiling Studies of N, N-Dimethylaniline-Heliamine in Rats by UHPLC-Q-Orbitrap MS/MS” (Molecules, 2024)
